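Following 48 hours of exposure in 96-well plates, responses at five concentrations were used to interpolate endpoints linearly. GI50 = concentration required for 50% inhibition of growth.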 The source made the active and inactive calls. No stated cut-off is given here; in the data, active = GI50 up to about 1.1 µM and inactive = higher.
How the values were obtained:
Test in all cases: growth of human tumour cells (NCI), 48 h
[1] = tested on: A549
[2] = tested on: CCRF-CEM
[3] = tested on: HCC 2998
[4] = tested on: HCT-116
[5] = tested on: HCT-15
[6] = tested on: HL-60
[7] = tested on: IGROV-1
[8] = tested on: NCI-H460
[9] = tested on: NCI-H522
[10] = tested on: RXF 393
[11] = tested on: SF-268
[12] = tested on: SF-295
[13] = tested on: SF-539
[14] = tested on: SK-MEL-28
[15] = tested on: SNB-19
[16] = tested on: SW-620
[17] = tested on: U-251
[18] = tested on: UACC-62
[19] = tested on: UO-31
[20] = tested on: OVCAR-3

| SMILES | GI50 [1] | GI50 [2] | GI50 [3] | GI50 [4] | GI50 [5] | GI50 [6] | GI50 [7] | GI50 [8] | GI50 [9] | GI50 [10] | GI50 [11] | GI50 [12] | GI50 [13] | GI50 [14] | GI50 [15] | GI50 [16] | GI50 [17] | GI50 [18] | GI50 [19] | GI50 [20] |
| --- | --- | --- | --- | --- | --- | --- | --- | --- | --- | --- | --- | --- | --- | --- | --- | --- | --- | --- | --- | --- |
| Nc1nnc(N)n1NC(=O)C(=O)Nc1ccc([N+](=O)[O-])cc1 | > 100 µM (inactive) | > 100 µM (inactive) | > 100 µM (inactive) | > 100 µM (inactive) | > 100 µM | > 100 µM (inactive) | > 100 µM (inactive) | > 100 µM (inactive) | > 100 µM (inactive) | > 100 µM (inactive) | > 100 µM (inactive) | > 100 µM (inactive) | > 100 µM (inactive) | > 100 µM (inactive) | > 100 µM (inactive) | > 100 µM (inactive) | > 100 µM (inactive) | 49.1 µM (inactive) | > 100 µM (inactive) | – |
| N/C(=N\O)N/N=C\c1cc([N+](=O)[O-])cc([N+](=O)[O-])c1O | 8.51 µM (inactive) | 6.61 µM (inactive) | 14.5 µM (inactive) | 4.92 µM (inactive) | 6.14 µM | 3.36 µM (inactive) | – | 2.76 µM (inactive) | 12.5 µM (inactive) | > 100 µM (inactive) | 62.1 µM (inactive) | 4.16 µM (inactive) | 18.4 µM (inactive) | > 100 µM (inactive) | > 96.2 µM (inactive) | 13.9 µM (inactive) | 10.5 µM (inactive) | 1.58 µM (inactive) | 4.67 µM (inactive) | 59.3 µM (inactive) |
| O=C(O)CSCc1cc2c(O)c(c1)Cc1cc(CSCC(=O)O)cc(c1O)Cc1cc(CSCC(=O)O)cc(c1O)Cc1cc(CSCC(=O)O)cc(c1O)C2 | > 100 µM (inactive) | > 100 µM (inactive) | > 100 µM (inactive) | > 100 µM (inactive) | > 100 µM | > 100 µM (inactive) | > 100 µM (inactive) | > 100 µM (inactive) | > 100 µM (inactive) | > 100 µM (inactive) | > 100 µM (inactive) | > 100 µM (inactive) | > 100 µM (inactive) | > 100 µM (inactive) | > 100 µM (inactive) | > 100 µM (inactive) | > 100 µM (inactive) | – | > 100 µM (inactive) | > 100 µM (inactive) |
| O=P1(N2CCOCC2)OCCO1 | > 100 µM (inactive) | > 100 µM (inactive) | > 100 µM (inactive) | > 100 µM (inactive) | > 100 µM | > 100 µM (inactive) | > 100 µM (inactive) | > 100 µM (inactive) | > 100 µM (inactive) | > 100 µM (inactive) | > 100 µM (inactive) | > 100 µM (inactive) | – | > 100 µM (inactive) | > 100 µM (inactive) | > 100 µM (inactive) | > 100 µM (inactive) | > 100 µM (inactive) | > 100 µM (inactive) | – |
| COC1C=CC(O)C(CO)O1 (stereo unspecified) | > 100 µM (inactive) | > 100 µM (inactive) | > 100 µM (inactive) | > 100 µM (inactive) | > 100 µM | > 100 µM (inactive) | > 100 µM (inactive) | > 100 µM (inactive) | > 100 µM (inactive) | > 100 µM (inactive) | – | > 100 µM (inactive) | > 100 µM (inactive) | > 100 µM (inactive) | – | > 100 µM (inactive) | > 100 µM (inactive) | > 100 µM (inactive) | > 100 µM (inactive) | > 100 µM (inactive) |
| CCOC(=O)/C(C(=O)Nc1ccc(Cl)cc1)=C(/N)N1CCCC1 | > 100 µM (inactive) | > 100 µM (inactive) | > 100 µM (inactive) | 94 µM (inactive) | > 100 µM | > 100 µM (inactive) | 54.2 µM (inactive) | > 100 µM (inactive) | > 100 µM (inactive) | > 100 µM (inactive) | > 100 µM (inactive) | > 100 µM (inactive) | > 100 µM (inactive) | > 100 µM (inactive) | > 100 µM (inactive) | > 100 µM (inactive) | > 100 µM (inactive) | 42 µM (inactive) | – | > 100 µM (inactive) |
| NC[C@H]1Nc2ccccc2[C@@H](O)C1O (stereo partly specified) | > 100 µM (inactive) | > 100 µM (inactive) | > 100 µM (inactive) | > 100 µM (inactive) | > 100 µM | > 100 µM (inactive) | > 100 µM (inactive) | > 100 µM (inactive) | – | > 100 µM (inactive) | > 100 µM (inactive) | > 100 µM (inactive) | > 100 µM (inactive) | > 100 µM (inactive) | > 100 µM (inactive) | > 100 µM (inactive) | > 100 µM (inactive) | > 100 µM (inactive) | > 100 µM (inactive) | > 100 µM (inactive) |

— ChEMBL document CHEMBL1201862, “PubChem BioAssay data set” (2004)
